In the test the test system is human corpus cavernosum tissue. Briefly: In vitro comparative relaxation responses in phenylephrine-contracted human corpus cavernosum tissue strips (organ chamber, isometric tension). The test is classed as cell-based. The note with it: 10 μM and 30 μM, cumulative additions; tissue contracted with phenylephrine 7×10^−7 M; −100% = tone after papaverine 10^−4 M; comparator equimolar dipyridamole; FIG. 40. The source says: FIG. 40 Graph of comparative in vitro relaxation effects of dipyridamole and Example 1 in phenylephrine induced contacted human corpus cavernosum tissue.
Human corpus cavernosum tissue biopsies were obtained at the time of penile prosthesis implantation from impotent men. The tissue was maintained in a chilled Krebs-bicarbonate solution prior to assay. The tissue was cut into strips of 0.3×0.3×1 cm and suspended in organ chambers for isometric tension measurement. Tissues were incrementally stretched until optimal isometrtic tension for contraction was obtained. Once this was achieved, the tissues were contracted with phenylephine (7×10^−7 M) and once a stable contraction was achieved, the tissues were exposed to either dipyridamole or Example 1 (10^−6 to 3×10^−5 M) by cumulative additions to the chamber. At the end of the experiment papaverine (10^−4 M) is added to obtain maximal relaxation. […] Data are expressed as the percent loss in tone from the phenylephrine-induced contraction (0%=phenylephrine contraction; −100%=tone after the administration of papaverine).

`CC(C)(CC(=O)OCCN(CCOC(=O)CC(C)(C)SN=O)c1nc(N2CCCCC2)c2nc(N(CCOC(=O)CC(C)(C)SN=O)CCOC(=O)CC(C)(C)SN=O)nc(N3CCCCC3)c2n1)SN=O` [Example 1, 2,6-bis(diethyl(3-methyl-3(nitrosothiol)butyric acid ester)amino)-4,8-dipiperidinopyrimido-[5,4-d]-pyrimidine]: the “relaxation of the phenylephrine-induced contraction (percent loss in tone), compared with dipyridamole” value is on record as “more efficacious in relaxing the phenylephrine-induced contaction than is an equimolar dose of the phosphodiesterase inhibitor dipyridamole”.

Source of the values: patent US20060063774A1, “Phosphodiesterase inhibitor compounds and nitric oxide donors” (priority 2004, published 2006).
